What was measured:
Type in all cases: in vivo
Echinocloa crus-galli = assay: greenhouse post-emergence treatment, ECHCG; conditions: Table X12, 20 DAT, ECHCG, solo isoproturon (SC 500 g/l) 125 gai/ha
Procedure: (§1) The culture containers used were plastic pots containing loamy sand with approximately 3.0% of humus as substrate. The seeds of the test plants were sown separately for each species.
For the post-emergence treatment, the test plants were grown to a plant height of from 3 to 15 cm, depending on the plant habit, and only then treated with the active compounds which had been suspended or emulsified in water. To this end, the test plants were either sown directly, and grown in the same containers, or they were first grown separately as seedlings and transplanted into the test containers a few days prior to treatment.
(§2) Depending on the species, the plants were kept at 10-25° C. and 20-35° C., respectively.
(§3) The test period extended over 2 to 4 weeks. During this time, the plants were tended and their response to the individual treatments was evaluated.
(§4) Evaluation was carried out using a scale from 0 to 100. 100 means no emergence of the plants, or complete destruction of at least the above-ground parts, and 0 means no damage or normal course of growth. A good herbicidal activity is given at values of at least 70, and very good herbicidal activity is given at values of at least 85.
(§5) The respective stated components A and B, and if appropriate, C were formulated as a 10% by weight strength emulsion concentrate and, with addition of the amount of solvent system, introduced into the spray liquor used for applying the active compound. In the examples, the solvent used was water.
(§6) In the examples below, using the method of S. R. Colby (1967) “Calculating synergistic and antagonistic responses of herbicide combinations”, Weeds 15, p. 22ff., the value E, which is expected if the activity of the individual active compounds is only additive, was calculated. E=X+Y−(X·Y/100) where X=effect in percent using herbicide A at an application rate a; • Y=effect in percent using herbicide B at application rate b; • E=expected effect (in %) of herbicide A+herbicide B at application rates a+b.

Alopecurus myosuroides = assay: greenhouse pre-emergence treatment, ALOMY
Excerpt: as §1
(§7) For the pre-emergence treatment, the active compounds, suspended or emulsified in water, were applied directly after sowing by means of finely distributing nozzles. The containers were irrigated gently to promote germination and growth and subsequently covered with transparent plastic hoods until the plants had rooted. This cover caused uniform germination of the test plants unless this was adversely affected by the active compounds.
as §2, §3, §4, §5, §6

Setaria viridis = assay: greenhouse pre-emergence treatment, SETVI; conditions: for % activity: SETVI
Excerpt: as §1, §7, §2, §3, §4, §5, §6

Galium aparine [1] = assay: greenhouse post-emergence treatment, GALAP; conditions: Galium aparine, 480 h, Table X12, 20 DAT, GALAP, solo isoproturon (SC 500 g/l) 500 gai/ha
Summary of the method: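 Foliar application to greenhouse-grown plants 3–15 cm tall in humus-containing loamy sand; response assessed on a 0–100 scale after 2–4 weeks, with Colby's E=X+Y−(X·Y/100) as the additive expectation.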

Papaver rhoeas = assay: greenhouse pre-emergence treatment, PAPRH; conditions: 20 DAT
Excerpt: as §1, §7, §2, §3, §4, §5, §6

Helianthus annuus = assay: greenhouse pre-emergence treatment, HELAN; conditions: HELAN, 20 DAT
Excerpt: as §1, §7, §2, §3, §4, §5, §6

Galium aparine [2] = assay: greenhouse pre-emergence treatment, GALAP
Excerpt: as §1, §7, §2, §3, §4, §5, §6

Ambrosia elatior = assay: greenhouse pre-emergence treatment, AMBEL
Excerpt: as §1, §7, §2, §3, §4, §5, §6

Bromus sterilis = assay: greenhouse pre-emergence treatment, BROST; conditions: BROST, 20 DAT; for pest or weed control at 62.5 g/ha: Bromus sterilis, 480 h
Excerpt: as §1, §7, §2, §3, §4, §5, §6

Avena fatua = assay: greenhouse pre-emergence treatment, AVEFA; conditions: 20 DAT
Excerpt: as §1, §7, §2, §3, §4, §5, §6

Stellaria media = assay: greenhouse pre-emergence treatment, STEME; conditions: 20 DAT
Excerpt: as §1, §7, §2, §3, §4, §5, §6

Brachiaria decumbens = assay: greenhouse pre-emergence treatment, BRADC; conditions: Urochloa decumbens, 480 h, 20 DAT
Excerpt: as §1, §7, §2, §3, §4, §5, §6

Lolium multiflorum = assay: greenhouse pre-emergence treatment, LOLMU; conditions: Lolium multiflorum, 480 h, 20 DAT
Excerpt: as §1, §7, §2, §3, §4, §5, §6

Poa annua = assay: greenhouse pre-emergence treatment, POAAN; conditions: 20 DAT
Excerpt: as §1, §7, §2, §3, §4, §5, §6

Digitaria sanguinalis = assay: greenhouse pre-emergence treatment, DIGSA; conditions: Digitaria sanguinalis, 480 h, 20 DAT
Excerpt: as §1, §7, §2, §3, §4, §5, §6

Apera spica-venti = assay: greenhouse pre-emergence treatment, APESV; conditions: 20 DAT
Excerpt: as §1, §7, §2, §3, §4, §5, §6

Polygonum convolvulus = assay: greenhouse pre-emergence treatment, POLCO; conditions: Fallopia convolvulus, 480 h, 20 DAT, saflufenacil solo 12.5 gai/ha
Excerpt: as §1, §7, §2, §3, §4, §5, §6

[3] = Table X13, 20 DAT, solo isoproturon (SC 500 g/l) 125 gai/ha
[4] = solo dimethenamid (EC 720 g/l) 62.5 gai/ha
[5] = dimethenamid solo (EC 720 g/l), 62.5 gai/ha
[6] = solo quinmerac (WP 50%) 250 gai/ha
[7] = solo quinmerac (WP 50%) 62.5 gai/ha
[8] = solo saflufenacil (SC 342 g/l) 6.25 gai/ha, 20 DAT
[9] = solo saflufenacil (SC 342 g/l) 25 gai/ha, 20 DAT

CC(C)c1ccc(NC(=O)N(C)C)cc1 [isoproturon]
% activity (Echinocloa crus-galli): 40%
% activity (Alopecurus myosuroides; [3]): 0%
% activity (Setaria viridis; [3]): 0%
% activity (Setaria viridis; Table X13, 20 DAT, solo isoproturon (SC 500 g/l) 500 gai/ha): 75%
pest or weed control at 500000 µg/mL, 500 g/ha (Galium aparine [1]): 30%

COCC(C)N(C(=O)CCl)c1c(C)csc1C (stereo not drawn) [dimethenamid]
% activity (Papaver rhoeas; [4]): 90%
% activity (Papaver rhoeas; [5]): 90%
% activity (Papaver rhoeas; dimethenamid solo (EC 720 g/l), 125 gai/ha): 90%
% activity (Helianthus annuus; solo dimethenamid (EC 720 g/l) 250 gai/ha): 35%
plant injury at 250 g/ha (Helianthus annuus; Helianthus annuus, 480 h, dimethenamid solo (EC 720 g/l), 250 gai/ha): 35%
% activity (Galium aparine [2]; GALAP, 20 DAT, solo dimethenamid (EC 720 g/l) 31.25 gai/ha): 50%
% activity (Galium aparine [2]; GALAP, 20 DAT, solo dimethenamid (EC 720 g/l) 62.5 gai/ha): 60%
% activity (Galium aparine [2]; GALAP, 20 DAT, solo dimethenamid (EC 720 g/l) 125 gai/ha): 50%
pest or weed control at 31.25 g/ha (Galium aparine [2]; Galium aparine, 480 h, dimethenamid solo (EC 720 g/l), 31.25 gai/ha, 20 DAT, GALAP): 50%
pest or weed control at 62.5 g/ha (Galium aparine [2]; Galium aparine, 480 h, dimethenamid solo (EC 720 g/l), 62.5 gai/ha, 20 DAT, GALAP): 60%
pest or weed control at 125 g/ha (Galium aparine [2]; Galium aparine, 480 h, dimethenamid solo (EC 720 g/l), 125 gai/ha, 20 DAT, GALAP): 50%
% activity (Ambrosia elatior; AMBEL, 20 DAT, solo dimethenamid (EC 720 g/l) 125 gai/ha): 20%
% activity (Ambrosia elatior; AMBEL, 20 DAT, solo dimethenamid (EC 720 g/l) 250 gai/ha): 30%
pest or weed control at 31.25 g/ha (Ambrosia elatior; Ambrosia artemisiifolia, 480 h, AMBEL, 20 DAT, solo dimethenamid (EC 720 g/l) 31.25 gai/ha): 0%
pest or weed control at 62.5 g/ha (Ambrosia elatior; Ambrosia artemisiifolia, 480 h, AMBEL, 20 DAT, solo dimethenamid (EC 720 g/l) 62.5 gai/ha): 0%
pest or weed control at 125 g/ha (Ambrosia elatior; Ambrosia artemisiifolia, 480 h, dimethenamid solo (EC 720 g/l), 125 gai/ha, 20 DAT, AMBEL): 20%
pest or weed control at 250 g/ha (Ambrosia elatior; Ambrosia artemisiifolia, 480 h, dimethenamid solo (EC 720 g/l), 250 gai/ha, 20 DAT, AMBEL): 30%
% activity (Alopecurus myosuroides; dimethenamid solo (EC 720 g/l), 125 gai/ha, 20 DAT): 60%
% activity (Alopecurus myosuroides; dimethenamid solo (EC 720 g/l), 250 gai/ha, 20 DAT): 65%
% activity (Bromus sterilis; [4]): 80%
pest or weed control at 62.5 g/ha (Bromus sterilis; [5]): 80%
% activity (Avena fatua; AVEFA, solo dimethenamid (EC 720 g/l) 62.5 gai/ha): 10%
pest or weed control at 62.5 g/ha (Avena fatua; Avena fatua, 480 h, dimethenamid solo (EC 720 g/l), 62.5 gai/ha, AVEFA): 10%
pest or weed control at 125 g/ha (Avena fatua; Avena fatua, 480 h, dimethenamid solo (EC 720 g/l), 125 gai/ha, AVEFA): 50%
pest or weed control at 250 g/ha (Avena fatua; Avena fatua, 480 h, dimethenamid solo (EC 720 g/l), 250 gai/ha, AVEFA): 65%
% activity (Stellaria media; dimethenamid solo (EC 720 g/l), 31.25 gai/ha): 80%
% activity (Stellaria media; [5]): 90%
pest or weed control at 31.25 g/ha (Brachiaria decumbens; dimethenamid solo (EC 720 g/l), 31.25 gai/ha, BRADC): 60%
pest or weed control at 62.5 g/ha (Lolium multiflorum; dimethenamid solo (EC 720 g/l), 62.5 gai/ha, LOLMU): 80%

Cc1cnc2c(C(=O)O)c(Cl)ccc2c1 [quinmerac]
% activity (Papaver rhoeas; [6]): 95%
% activity (Poa annua; [7]): 0%
% activity (Poa annua; solo quinmerac (WP 50%) 125 gai/ha): 0%
% activity (Poa annua; [6]): 0%
plant injury at 125 g/ha (Helianthus annuus; Helianthus annuus, 480 h, solo quinmerac (WP 50%) 125 gai/ha): 0%
plant injury at 62.5 g/ha (Helianthus annuus; Helianthus annuus, 480 h, quinmerac solo (WP 50%), 62.5 gai/ha): 0%
pest or weed control at 31.25 g/ha (Digitaria sanguinalis; DIGSA, solo quinmerac (WP 50%) 31.25 gai/ha): 0%
pest or weed control at 62.5 g/ha (Digitaria sanguinalis; DIGSA, solo quinmerac (WP 50%) 62.5 gai/ha): 0%
pest or weed control at 125 g/ha (Digitaria sanguinalis; DIGSA, solo quinmerac (WP 50%) 125 gai/ha): 0%
pest or weed control at 125 g/ha (Galium aparine [2]; Galium aparine, 480 h, GALAP, 20 DAT, solo quinmerac (WP 50%) 125 gai/ha): 95%
pest or weed control at 250 g/ha (Ambrosia elatior; Ambrosia artemisiifolia, 480 h, AMBEL, 20 DAT, solo quinmerac (WP 50%) 250 gai/ha): 0%
pest or weed control at 62.5 g/ha (Bromus sterilis; [7]): 0%
% activity (Apera spica-venti; [7]): 0%
% activity (Apera spica-venti; [6]): 25%
pest or weed control at 31.25 g/ha (Avena fatua; Avena fatua, 480 h, AVEFA, solo quinmerac (WP 50%) 31.25 gai/ha): 0%
pest or weed control at 125 g/ha (Avena fatua; Avena fatua, 480 h, AVEFA, solo quinmerac (WP 50%) 125 gai/ha): 0%
% activity (Stellaria media; [6]): 0%
pest or weed control at 62.5 g/ha (Brachiaria decumbens; quinmerac solo (WP 50%), 62.5 gai/ha, BRADC): 0%
pest or weed control at 125 g/ha (Brachiaria decumbens; quinmerac solo (WP 50%), 125 gai/ha, BRADC): 0%
pest or weed control at 250 g/ha (Brachiaria decumbens; quinmerac solo (WP 50%), 250 gai/ha, BRADC): 30%
pest or weed control at 250 g/ha (Lolium multiflorum; LOLMU, solo quinmerac (WP 50%) 250 gai/ha): 0%

CC(C)N(C)S(=O)(=O)NC(=O)c1cc(-n2c(=O)cc(C(F)(F)F)n(C)c2=O)c(F)cc1Cl [saflufenacil]
inhibition at 6.25 g/ha (Digitaria sanguinalis; saflufenacil solo 6.25 gai/ha): 10%
inhibition at 25 g/ha (Digitaria sanguinalis; saflufenacil solo 25 gai/ha): 35%
% herbicidal activity (weed control, 0-100 scale) at 12.5 g/ha (Galium aparine [2]; Galium aparine, 480 h, 20 DAT, saflufenacil solo 12.5 gai/ha): 80%
pest or weed control at 30 g/ha (Galium aparine [2]; Galium aparine, 480 h, Table X11, 20 DAT, GALAP, solo saflufenacil (title: flumioxazin, WG 51%) 30 gai/ha, read-out: % activity): 65%
percent weed control (herbicidal activity, 0-100 scale) at 6.25 g/ha (Ambrosia elatior; Ambrosia artemisiifolia, 480 h, 20 DAT, saflufenacil solo 6.25 gai/ha): 45%
pest or weed control at 3.75 g/ha (Ambrosia elatior; Ambrosia artemisiifolia, 480 h, Table X11, 20 DAT, AMBEL, solo saflufenacil (title: flumioxazin, WG 51%) 3.75 gai/ha): 0%
% activity (Alopecurus myosuroides; [8]): 0%
% activity (Alopecurus myosuroides; solo saflufenacil (SC 342 g/l) 12.5 gai/ha, 20 DAT): 0%
% activity (Alopecurus myosuroides; [9]): 0%
% activity (Setaria viridis; [8]): 25%
% activity (Setaria viridis; [9]): 65%
inhibition at 6.25 g/ha (Setaria viridis; Setaria viridis, 480 h, 20 DAT, saflufenacil solo 6.25 gai/ha): 25%
inhibition at 12.5 g/ha (Setaria viridis; Setaria viridis, 480 h, 20 DAT, saflufenacil solo 12.5 gai/ha): 40%
inhibition at 25 g/ha (Setaria viridis; Setaria viridis, 480 h, 20 DAT, saflufenacil solo 25 gai/ha): 65%
inhibition at 50 g/ha (Setaria viridis; Setaria viridis, 480 h, 20 DAT, saflufenacil solo 50 gai/ha): 90%
inhibition at 12.5 g/ha (Polygonum convolvulus): 90%
inhibition at 6.25 g/ha (Avena fatua; Avena fatua, 480 h, saflufenacil solo 6.25 gai/ha): 0%
% herbicidal activity (weed control, 0-100 scale) at 6.25 g/ha (Brachiaria decumbens; saflufenacil solo 6.25 gai/ha): 10%
% herbicidal activity (weed control, 0-100 scale) at 12.5 g/ha (Brachiaria decumbens; saflufenacil solo 12.5 gai/ha): 20%
inhibition at 6.25 g/ha (Lolium multiflorum; saflufenacil solo 6.25 gai/ha): 10%

Source: patent US10966426B2, “Herbicidal compositions comprising phenylpyrimidines” (BASF SE, priority 2016, dated 2021)
